From BindingDB's records for doi:10.1111/j.1747-0285.2007.00594.x (Pfizer, 2007)

Key:
Experiment in all cases: Enzymatic Activity Assay
Conditions in all cases: pH 7.5; 22 °C
[1] = biological target: Serine/threonine-protein kinase PLK2 (Homo sapiens, UniProt Q9NYY3)
[2] = biological target: Serine/threonine-protein kinase PLK3 (Homo sapiens, UniProt Q9H4B4)
[3] = biological target: Serine/threonine-protein kinase PLK1 (Homo sapiens, UniProt P53350)
Sequence of Serine/threonine-protein kinase PLK1 (P53350 whole entry): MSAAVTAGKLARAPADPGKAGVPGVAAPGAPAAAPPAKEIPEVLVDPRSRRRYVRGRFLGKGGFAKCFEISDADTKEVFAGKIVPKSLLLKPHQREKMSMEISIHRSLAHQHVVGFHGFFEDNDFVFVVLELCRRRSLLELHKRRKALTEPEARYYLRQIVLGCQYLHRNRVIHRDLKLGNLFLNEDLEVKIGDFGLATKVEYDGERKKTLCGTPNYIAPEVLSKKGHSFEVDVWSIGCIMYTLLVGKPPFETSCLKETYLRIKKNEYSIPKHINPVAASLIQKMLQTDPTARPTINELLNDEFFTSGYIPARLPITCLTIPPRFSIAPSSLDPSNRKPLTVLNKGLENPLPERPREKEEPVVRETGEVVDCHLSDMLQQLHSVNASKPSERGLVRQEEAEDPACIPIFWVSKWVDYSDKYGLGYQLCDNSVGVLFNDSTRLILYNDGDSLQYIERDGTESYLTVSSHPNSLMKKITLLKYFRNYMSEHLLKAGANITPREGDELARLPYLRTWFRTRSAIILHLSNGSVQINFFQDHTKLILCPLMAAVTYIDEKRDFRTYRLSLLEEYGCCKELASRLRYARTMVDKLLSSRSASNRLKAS

Sequence of Serine/threonine-protein kinase PLK2 (Q9NYY3 whole entry): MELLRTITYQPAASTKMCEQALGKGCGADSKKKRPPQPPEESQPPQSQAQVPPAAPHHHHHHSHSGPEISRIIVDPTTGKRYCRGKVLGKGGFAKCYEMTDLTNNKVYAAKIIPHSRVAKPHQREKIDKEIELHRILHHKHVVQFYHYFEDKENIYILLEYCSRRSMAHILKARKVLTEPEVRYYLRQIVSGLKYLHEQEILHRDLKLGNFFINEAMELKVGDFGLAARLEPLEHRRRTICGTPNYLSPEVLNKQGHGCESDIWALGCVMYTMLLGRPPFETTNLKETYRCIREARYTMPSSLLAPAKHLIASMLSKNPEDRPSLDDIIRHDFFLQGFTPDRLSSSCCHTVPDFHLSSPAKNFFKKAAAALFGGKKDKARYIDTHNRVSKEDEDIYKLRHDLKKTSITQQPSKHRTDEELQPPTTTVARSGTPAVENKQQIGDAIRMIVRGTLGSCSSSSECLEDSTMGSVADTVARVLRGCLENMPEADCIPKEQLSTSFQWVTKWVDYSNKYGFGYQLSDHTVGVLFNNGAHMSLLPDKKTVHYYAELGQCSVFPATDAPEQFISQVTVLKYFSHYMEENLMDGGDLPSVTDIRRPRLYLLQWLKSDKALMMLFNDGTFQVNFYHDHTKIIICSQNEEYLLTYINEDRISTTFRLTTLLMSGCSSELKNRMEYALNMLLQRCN
Sequence of Serine/threonine-protein kinase PLK3 (Q9H4B4 whole entry): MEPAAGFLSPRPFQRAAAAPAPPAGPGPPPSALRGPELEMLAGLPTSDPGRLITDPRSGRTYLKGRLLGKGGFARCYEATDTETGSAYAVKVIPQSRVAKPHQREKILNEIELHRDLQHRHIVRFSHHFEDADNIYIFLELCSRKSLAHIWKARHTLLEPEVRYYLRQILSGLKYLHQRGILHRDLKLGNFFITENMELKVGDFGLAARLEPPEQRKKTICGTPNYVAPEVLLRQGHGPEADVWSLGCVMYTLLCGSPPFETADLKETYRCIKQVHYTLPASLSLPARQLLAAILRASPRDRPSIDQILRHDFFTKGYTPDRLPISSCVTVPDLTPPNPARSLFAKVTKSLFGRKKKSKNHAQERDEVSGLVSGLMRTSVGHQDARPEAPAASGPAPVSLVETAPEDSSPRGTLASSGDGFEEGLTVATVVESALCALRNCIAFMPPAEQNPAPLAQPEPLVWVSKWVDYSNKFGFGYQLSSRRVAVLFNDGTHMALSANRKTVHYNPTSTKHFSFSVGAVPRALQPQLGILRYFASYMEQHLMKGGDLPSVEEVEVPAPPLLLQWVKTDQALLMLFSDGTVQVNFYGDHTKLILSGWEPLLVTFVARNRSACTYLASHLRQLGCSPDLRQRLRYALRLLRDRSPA

| Structure (SMILES) | IC50 [1] [nM] | IC50 [2] [nM] | IC50 [3] [nM] |
| --- | --- | --- | --- |
| COc1cc(N2CCN(C)CC2)ccc1Nc1ncc(C(C)=O)c(NC2CCCC2)n1 [1-[4-(cyclopentylamino)-2-{[2-methoxy-4-(4-methylpiperazin-1-yl)phenyl]amino}pyrimidin-5-yl]ethan-1-one] | > 10000 | 2580 | 145 |
| CC(=O)c1cnc(Nc2ccc(N3CCN(C)CC3)cc2)nc1NC1CCCC1 [1-[4-(cyclopentylamino)-2-{[4-(4-methylpiperazin-1-yl)phenyl]amino}pyrimidin-5-yl]ethan-1-one] | 367 | 3490 | 345 |
| CC[C@@H]1C(=O)N(C)c2cnc(Nc3ccc(C(=O)NC4CCN(C)CC4)cc3)nc2N1C1CCCC1 [4-{[(7R)-8-cyclopentyl-7-ethyl-5-methyl-6-oxo-5,6,7,8-tetrahydropteridin-2-yl]amino}-N-(1-methylpiperidin-4-yl)benzamide] | 11.5 | 6.7 | 5 |
